Here are results for twelve compounds from ChEMBL document CHEMBL4390686, “Design, Synthesis, and Pharmacokinetic Evaluation of Phosphate and Amino Acid Ester Prodrugs for Improving the Oral Bioavailability of the HIV-1 Protease Inhibitor Atazanavir” (J Med Chem, 2019).

Data set [1] can be described thus: physchem. To be noted: 30% CH3CN/phosphate buffer, pH 7.4.
Description: Half life in pH 7.4 30%CH3CN/phosphate buffer at 50 mM by RP-UPLC analysis
The nature of data set [2]: physchem. Conditions: phosphate buffer, pH 7.4.
Description: Aqueous solubility of the compound in pH 7.4 phosphate buffer by RP-UPLC analysis
For data set [3] the following is noted: rat, in vivo, po, 3 mg/kg.
Description: AUClast in cannulated Sprague-Dawley rat assessed as atazanavir level at 3 mg/kg equiv of atazanavir administered orally by UPLC/MS/MS analysis
Data set [4] can be described thus: physchem. To be noted: HCl buffer, pH 1.
Description: Aqueous solubility of the compound in pH 1 HCl buffer by RP-UPLC analysis
For data set [5] the following is noted: rat, in vivo, po, 3 mg/kg. This is another data set of the same source.
A short description of data set [6]: physchem. Conditions: 30% CH3CN/acetate buffer, pH 4.
Description: Half life in pH 4 30%CH3CN/acetate buffer at 50 mM by RP-UPLC analysis
The nature of data set [7]: physchem. To be noted: 30% CH3CN/HCl buffer, pH 1.
Description: Half life in pH 1 30%CH3CN/HCl buffer at 50 mM by RP-UPLC analysis
For data set [8] the following is noted: rat, in vivo, po, 3 mg/kg. This is another data set of the same source.
Data set [9] in a line: physchem. Conditions: acetate buffer, pH 4.
Description: Aqueous solubility of the compound in pH 4 acetate buffer by RP-UPLC analysis
Data set [10] concerns Human immunodeficiency virus 1.
Description: Antiviral activity against HIV1 NL4-3 infected in human MT2 cells assessed as reduction in viral yield measured after 4 days by EnduRen live cell substrate based luciferase reporter gene assay
The nature of data set [11]: physchem. Conditions: phosphate buffer, pH 6.5.
Description: Aqueous solubility of the compound in pH 6.5 phosphate buffer by RP-UPLC analysis
The target in the next data set is Protease (Human immunodeficiency virus 1, UniProt Q9YQ12).
Data set [12] is described as follows: physchem. To be noted: 30% CH3CN/phosphate buffer, pH 6.5.
Description: Half life in pH 6.5 30%CH3CN/phosphate buffer at 50 mM by RP-UPLC analysis

In general, half-life refers to the time needed for the level to fall by half in the phase considered. Lower therefore signals rapid decline. The term solubility denotes the dissolved amount per volume that the medium holds. Low readings indicate little dissolved substance, high ones much dissolved substance. One may read the Cmax as the maximum level reached in the sampled fluid or tissue. For orientation: Tmax means the time from dosing to the highest level. In general, EC50 refers to the concentration at which the effect is half-maximal. The low end stands for higher potency in that assay, the high end for lower potency in that assay. One may read the IC50 as the concentration that inhibits the measured activity by half. A high value points to weaker potency in that assay.

≈ marks a conversion by molar mass, not a printed value.

Protease, sequence (Q9YQ12 whole entry): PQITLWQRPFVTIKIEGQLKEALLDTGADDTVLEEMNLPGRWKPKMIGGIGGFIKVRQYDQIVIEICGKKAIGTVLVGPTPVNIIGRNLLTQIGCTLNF
Description for Protease: Inhibition of HIV1 protease activity

As for `COC(=O)N[C@H](C(=O)N[C@@H](Cc1ccccc1)[C@H](CN(Cc1ccc(-c2ccccn2)cc1)NC(=O)[C@@H](NC(=O)OC)C(C)(C)C)OC(=O)[C@@H](N)CCSC)C(C)(C)C`, the half-life at 50000 µM in the data set “physchem [1]” was 4.33 days; in “physchem [6]”, more than 20.8 days; in the data set “physchem [7]” it was more than 20.8 days. The solubility in the data set “physchem [2]” is 44 µg/mL (≈ 52.6 µM); in the data set “physchem [4]” it was more than 1630 µg/mL; in “physchem [9]”, more than 1530 µg/mL. In data set [3], the AUClast stood at 0.053 µM·h. Moreover, the highest level in data set [5] (Cmax) was 37 nM. For the same compound, in data set [8], the Tmax came out at 0.0346 days.

For `COC(=O)N[C@H](C(=O)N[C@@H](Cc1ccccc1)[C@H](CN(Cc1ccc(-c2ccccn2)cc1)NC(=O)[C@@H](NC(=O)OC)C(C)(C)C)OC(=O)[C@@H](N)Cc1c[nH]c2ccccc12)C(C)(C)C`, the half-life at 50000 µM in the data set “physchem [1]” was 6.97 days; in the data set “physchem [6]”, 15.7 days; in the data set “physchem [7]”, 15.7 days. Further, the solubility in “physchem [2]” was 1 µg/mL (≈ 1.12 µM); in the data set “physchem [4]” it was more than 1040 µg/mL; in “physchem [9]”, more than 910 µg/mL. The same compound displayed an AUClast in data set [3] of 0.19 µM·h. The same compound returned a Cmax in [5] of 90 nM. Besides, the Tmax in data set [8] is 0.033 days.

The compound `COC(=O)N[C@H](C(=O)N[C@@H](Cc1ccccc1)[C@H](CN(Cc1ccc(-c2ccccn2)cc1)NC(=O)[C@@H](NC(=O)OC)C(C)(C)C)OC(=O)[C@@H](C)N)C(C)(C)C` yielded an EC50 in [10] of 0.0009 to 1.25 µM. In addition, the solubility in “physchem [11]” is 520 µg/mL (≈ 670 µM); in “physchem [4]”, more than 1300 µg/mL; in “physchem [9]” it was more than 1700 µg/mL. The IC50 at Protease is 0.004 to 1.14 µM. Also, the AUClast in data set [3] was 0.008 µM·h. The half-life at 50000 µM is 1.57 days in “physchem [12]”, more than 20.8 days in “physchem [6]” and more than 20.8 days in “physchem [7]”. The compound further gave a Cmax in data set [5] of 3 nM. Further, the Tmax in [8] was found to be 0.179 days.

`COC(=O)N[C@H](C(=O)N[C@@H](Cc1ccccc1)[C@H](CN(Cc1ccc(-c2ccccn2)cc1)NC(=O)[C@@H](NC(=O)OC)C(C)(C)C)OC(=O)[C@@H](NC(=O)[C@H](N)C(C)C)C(C)C)C(C)(C)C` returned an EC50 in data set [10] of 0.0009 to 1.25 µM. In addition, the solubility was 620 µg/mL (≈ 686 µM) in “physchem [11]”, more than 2000 µg/mL in the data set “physchem [4]” and more than 2000 µg/mL in “physchem [9]”. Besides, the IC50 at Protease lay within 0.004 to 1.14 µM. Besides, the half-life at 50000 µM in “physchem [12]”, in “physchem [6]” and in the data set “physchem [7]” was more than 20.8 days throughout.

`COC(=O)N[C@H](C(=O)N[C@@H](Cc1ccccc1)[C@H](CN(Cc1ccc(-c2ccccn2)cc1)NC(=O)[C@@H](NC(=O)OC)C(C)(C)C)OC(=O)CN)C(C)(C)C` yielded an EC50 in data set [10] of 0.0009 to 1.25 µM. Moreover, the values for the half-life at 50000 µM in “physchem [1]”, in the data set “physchem [6]” and in “physchem [7]” were 1.63 days, more than 20.8 days and more than 20.8 days, respectively. Further, the IC50 against Protease lay in the range of 0.004 to 1.14 µM. Moreover, the solubility is 960 µg/mL (≈ 1260 µM) in “physchem [2]”, more than 1200 µg/mL in the data set “physchem [4]” and more than 1600 µg/mL in “physchem [9]”. Also, in [3], the AUClast stood at 0.224 µM·h. In data set [5], this compound showed a Cmax of 162 nM. The Tmax in [8] came to 0.38 days.

For the compound `CN[C@@H](Cc1ccccc1)C(=O)N(C)CC(=O)O[C@@H](CN(Cc1ccc(-c2ccccn2)cc1)NC(=O)[C@@H](NC(=O)OC)C(C)(C)C)[C@H](Cc1ccccc1)NC(=O)[C@@H](NC(=O)OC)C(C)(C)C`, the AUClast in data set [3] was determined as 0.092 µM·h. In addition, the half-life at 50000 µM is 0.00333 days in the data set “physchem [12]”, 0.65 days in the data set “physchem [6]” and 15.7 days in the data set “physchem [7]”. The compound further showed a solubility in “physchem [4]” of more than 2700 µg/mL. The peak level in [5] (Cmax) was 160 nM. Also, the Tmax in [8] amounted to 0.012 days.

Compound `COC(=O)N[C@H](C(=O)N[C@@H](Cc1ccccc1)[C@H](CN(Cc1ccc(-c2ccccn2)cc1)NC(=O)[C@@H](NC(=O)OC)C(C)(C)C)OC(=O)[C@H](NC(=O)[C@@H](N)C(C)C)C(C)C)C(C)(C)C` had an EC50 in [10] of 0.0009 to 1.25 µM. The solubility was 930 µg/mL (≈ 1030 µM) in the data set “physchem [11]”, more than 1710 µg/mL in “physchem [4]” and more than 1420 µg/mL in “physchem [9]”. For the same compound, the IC50 against Protease fell in the range of 0.004 to 1.14 µM. Also, the half-life at 50000 µM in the data set “physchem [12]”, in the data set “physchem [6]” and in the data set “physchem [7]” was more than 20.8 days in each case.

Take `COC(=O)N[C@H](C(=O)N[C@@H](Cc1ccccc1)[C@H](CN(Cc1ccc(-c2ccccn2)cc1)NC(=O)[C@@H](NC(=O)OC)C(C)(C)C)OC(=O)[C@H](C)N)C(C)(C)C`: the EC50 in data set [10] is 0.0009 to 1.25 µM. Further, the solubility in the data set “physchem [11]” is 750 µg/mL (≈ 967 µM); in the data set “physchem [4]”, more than 1300 µg/mL; in “physchem [9]”, more than 1100 µg/mL. At Protease, this compound showed an IC50 of 0.004 to 1.14 µM. This compound gave an AUClast in data set [3] of 0.094 µM·h. Moreover, the half-life at 50000 µM was 1.57 days in the data set “physchem [12]”, more than 20.8 days in “physchem [6]” and more than 20.8 days in the data set “physchem [7]”. The concentration in data set [5] peaked (Cmax) at 39 nM. In addition, in [8], the Tmax was determined as 0.12 days.

`COC(=O)N[C@H](C(=O)N[C@@H](Cc1ccccc1)[C@H](CN(Cc1ccc(-c2ccccn2)cc1)NC(=O)[C@@H](NC(=O)OC)C(C)(C)C)OC(=O)CN(C)C(=O)[C@H](Cc1ccccc1)N(C)C)C(C)(C)C`: the solubility in “physchem [11]” is 20 µg/mL (≈ 21 µM); in “physchem [4]” it was more than 1200 µg/mL; in “physchem [9]”, more than 2200 µg/mL. For the same compound, the AUClast in [3] stood at 0.359 µM·h. For the same compound, the half-life at 50000 µM in “physchem [12]” is more than 13.9 days; in “physchem [6]” it was more than 20.8 days; in “physchem [7]”, 15.7 days. Besides, the concentration in [5] peaked (Cmax) at 285 nM. Also, the Tmax in [8] came out at 0.021 days.

For `CNCC(=O)O[C@@H](CN(Cc1ccc(-c2ccccn2)cc1)NC(=O)[C@@H](NC(=O)OC)C(C)(C)C)[C@H](Cc1ccccc1)NC(=O)[C@@H](NC(=O)OC)C(C)(C)C`, the solubility in “physchem [11]” was 930 µg/mL (≈ 1200 µM); in the data set “physchem [4]”, more than 2200 µg/mL; in the data set “physchem [9]”, more than 2400 µg/mL. For the same compound, the AUClast in data set [3] stood at 0.0296 µM·h. Besides, the half-life at 50000 µM in “physchem [12]” was 1.04 days; in the data set “physchem [6]”, more than 13.9 days; in “physchem [7]”, more than 20.8 days. For the same compound, the Cmax in data set [5] turned out to be 9 nM. Also, in [8], the Tmax came to 0.021 days.

For `COC(=O)N[C@H](C(=O)N[C@@H](Cc1ccccc1)[C@H](CN(Cc1ccc(-c2ccccn2)cc1)NC(=O)[C@@H](NC(=O)OC)C(C)(C)C)OC(=O)[C@H](N)CCSC)C(C)(C)C`, the half-life at 50000 µM in “physchem [1]” is 4.05 days; in the data set “physchem [6]”, more than 20.8 days; in “physchem [7]”, more than 20.8 days. The solubility in the data set “physchem [2]” was 45 µg/mL (≈ 53.8 µM); in “physchem [4]” it was more than 990 µg/mL; in the data set “physchem [9]”, more than 890 µg/mL.

For `COC(=O)N[C@H](C(=O)N[C@@H](Cc1ccccc1)[C@H](CN(Cc1ccc(-c2ccccn2)cc1)NC(=O)[C@@H](NC(=O)OC)C(C)(C)C)OC(=O)[C@H](N)Cc1ccccc1)C(C)(C)C`, the EC50 in data set [10] was in the range of 0.0009 to 1.25 µM. Further, the results for the solubility in “physchem [11]”, in “physchem [4]” and in “physchem [9]” were less than 1 µg/mL, more than 1200 µg/mL and more than 1200 µg/mL, respectively. In addition, the IC50 on Protease lay in the range of 0.004 to 1.14 µM. In [3], this compound registered an AUClast of 0.154 µM·h. Also, the half-life at 50000 µM in the data set “physchem [12]”, in the data set “physchem [6]” and in the data set “physchem [7]” was more than 20.8 days throughout. Besides, in [5], the concentration peaked (Cmax) at 64 nM. The Tmax in data set [8] was found to be 0.021 days.
